Read-outs that look alike come from different tables or passages of the source.

This experiment has as its system C6/36 Aedes albopictus cell line infected with Wolbachia pipientis (Wolbachia strain wAlbB). Put plainly: In vitro insect cell line assay (anti-Wolbachia screen, SYTO 11 high content imaging). Conditions: C6/36 Aedes albopictus cells infected with Wolbachia pipientis wAlbB, 7 days incubation, SYTO 11 imaging, read-out: In vitro anti-Wolbachia activity. It counts as cell-based. As to the method: A C6/36 Aedes albopictus cell line infected with Wolbachia pipientis (Wolbachia strain wAlbB) derived from Aa23 A. albopictus cell line (O'Neill et al., 1997; Insect Mol Biol; Turner et al., (2006) J. Immunol. 7:1240-1249) was used to screen compounds. Cells were cultured in Leibovitz's L15+L-glutamine supplemented with heat-inactivated Foetal Calf Serum (HI-FCS), non-essential amino acids and tryptose phosphate broth. Culture medium was filter-sterilized through a 0.2 μm filter and stored at 4° C. Compounds were provided as 10 mM stocks in DMSO, diluted to 50 μM working stock to give final concentration of 5 μM on the test plate. Concentrated stocks were frozen at −20° C.
Prior to use in the screening assay, cell cultures were sub-passaged (6 days prior) to provide ˜90% confluent cells on Day 0 of screening assay. On Day 0 (assay set-up), the medium was removed from the stock culture flask and replaced with fresh medium. The cells were detached by scraping and cell density was calculated using an automated cell counter. The cells were then diluted at working density and aliquoted at 90 μl to each well of a Cell Carrier 384 well plate (Perkin Elmer). Cell plates were incubated at 26° C.
Control solution (DMSO-medium) was dispensed at 10 μl per well for “untreated” wells. Test solution (Drug-DMSO) was also dispensed at 10 μl (from working plate) per well for “treated” wells. The plates were incubated at 26° C., inside plastic wallet in incubator, for 7 days.
On Day 7, 25 μl of staining medium/dye (SYTO 11, Life Technologies) was added to each sample well and allowed to stain for 15 minutes in the dark. All the medium was removed from each sample well without disturbing the cells and replaced with 100 μl of fresh medium. Plates were imaged on the Operetta High Content Imaging system (Perkin Elmer) and analyzed using texture analysis through Harmony software (Perkin Elmer). The cell-based screen and analysis are described in detail in Clare et al. (2014) J Biomol Screen.

`CS(=O)(=O)C1CCN(c2nc(NCc3ccccc3C(F)(F)F)c3cccnc3n2)CC1` [Example 243, 2-(4-(methylsulfonyl)piperidin-1-yl)-N-(2-(trifluoromethyl)benzyl)pyrido[2,3-d]pyrimidin-4-amine]: the EC50 (168 h) lay in the range of 100 to 1000 nM. `CC(C)Nc1nc(NCc2cccc(F)c2)c2sccc2n1` [Example 14, N^4-(3-fluorobenzyl)-N^2-isopropylthieno[3,2-d]pyrimidine-2,4-diamine]: for the setting “168 h”, the EC50 was in the range of 100 to 1000 nM. Regarding “2-((3,3-difluoropyrrolidin-1-yl)methyl)-N-((2-(trifluoromethyl)pyridin-3-yl)methyl)pyrido[2,3-d]pyrimidin-4-amine [Example 225]”, the EC50 lay in the range of 1000 to 100000 nM.

`Fc1ccccc1CNc1nc(Cl)nc2ccsc12` [Example 10]: the EC50 (168 h) fell in the range of 1000 to 100000 nM. Regarding `FC(F)(F)c1ccccc1CNc1nc(N2CCOC3CC32)nc2ncccc12` (centres unmarked) [Example 301, 2-(2-oxa-5-azabicyclo[4.1.0]heptan-5-yl)-N-(2-(trifluoromethyl)benzyl)pyrido[2,3-d)pyrimidin-4-amine], the EC50 (168 h) fell in the range of 0.01 to 1 nM. On to `NC(=O)c1nc(NCc2ccccc2C(F)(F)F)c2cccnc2n1` [Example 146, 4-((2-(trifluoromethyl)benzyl)amino)pyrido[2,3-d]pyrimidine-2-carboxamide], for which, under “168 h”, the EC50 was 1000 to 100000 nM. On the same count and under the same terms, then `CC(C)(O)c1nc(NCc2ccccc2C(F)(F)F)c2sccc2n1` [Example 86], with 1000 to 100000 nM.

Consider `CC1CN(c2nc(NCc3ccccc3C(F)(F)F)c3cccnc3n2)CCO1` (centres unmarked) [Example 248, 2-(2-methylmorpholino)-N-(2-(trifluoromethyl)benzyl)pyrido[2,3-d]pyrimidin-4-amine], for which the EC50 (168 h) fell in the range of 0.01 to 1 nM. Same read-out and setting: the same measure for `FC(F)Sc1nc(NCc2cccnc2C(F)(F)F)c2cccnc2n1` [Example 191, 2-((difluoromethyl)thio)-N-((2-(trifluoromethyl)pyridin-3-yl)methyl)pyrido[2,3-d]pyrimidin-4-amine]: 100 to 1000 nM.

Consider `C[C@@H]1COCCN1c1nc(N2CCC2c2cccnc2C(F)(F)F)c2cccnc2n1` (stereo partly drawn) [Example 288, (3R)-3-methyl-4-(4-(2-(2-(trifluoromethyl)pyridin-3-yl)azetidin-1-yl)pyrido[2,3-d]pyrimidin-2-yl)morpholine], for which, under “168 h”, the EC50 lay within 1 to 10 nM. As to `FC(F)(F)c1cccnc1CNc1ncnc2ccsc12` [Example 61, N-((3-(trifluoromethyl)pyridin-2-yl)methyl)thieno[3,2-d]pyrimidin-4-amine], the EC50 (168 h) lay within 1000 to 100000 nM. Regarding `FC(F)(F)c1ncccc1CNc1nc(N2CCCCC2C(F)(F)F)nc2ncccc12` (centres unmarked) [Example 259, 2-(2-(trifluoromethyl)piperidin-1-yl)-N-((2-(trifluoromethyl)pyridin-3-yl)methyl)pyrido[2,3-d]pyrimidin-4-amine], the EC50 (168 h) was 0.01 to 1 nM. Consider `Cc1nc(NCc2cccnc2C(F)(F)F)c2cccnc2n1` [Example 177, 2-methyl-N-((2-(trifluoromethyl)pyridin-3-yl)methyl)pyrido[2,3-d]pyrimidin-4-amine], for which the EC50 (168 h) was 1000 to 100000 nM.

With `FC(F)(F)c1ccccc1CNc1nc(NCCN2CCOCC2)nc2ccsc12` [Example 90, N^2-(2-morpholinoethyl)-N^4-(2-(trifluoromethyl)benzyl)thieno[3,2-d]pyrimidine-2,4-diamine], the EC50 (168 h) was in the range of 1000 to 100000 nM. `Oc1nc(NCc2cccnc2C(F)(F)F)c2cccnc2n1` [Example 182, 4-(((2-(trifluoromethyl)pyridin-3-yl)methyl)amino)pyrido[2,3-d]pyrimldin-2-ol]: where the note is “168 h”, the EC50 fell in the range of 1000 to 100000 nM. The same measure, in the same setting: then `CC(C)Nc1nc(NCc2ccccc2S(C)(=O)=O)c2cccnc2n1` [Example 127, N^2-isopropyl-N^4-(2-(methylsulfonyl)benzyl)pyrido[2,3-d]pyrimidine-2,4-diamine], with 100 to 1000 nM. In the case of `FC(F)(F)c1ccccc1CNc1ncnc2ccsc12` [Example 23, N-(2-(trifluoromethyl)benzyl)thieno[3,2-d]pyrimidin-4-amine], the EC50 (168 h) was in the range of 10 to 100 nM.
